Source: patent publication US11124479B2, “Oligopyrroles as antagonists of islet amyloid polypeptide oligomerization” (New York University, priority 2017, dated 2021)

Key:
[1] = target: T1, islet amyloid polypeptide (IAPP) (Homo sapiens, UniProt P10997); assay: ThT-based kinetic assay of IAPP fibrillation; assay type: biochemical; settings: for relative t50 of IAPP fibrillation versus control reaction: 15 μM IAPP, equimolar ratio
T1 construct: IAPP is a 37 residue neuropancreatic hormone peptide; purchased Anaspec (Fremont, Calif.)
T1 sequence (P10997 34-70 limits assumed): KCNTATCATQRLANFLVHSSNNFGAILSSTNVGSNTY
Source text: The aggregation kinetics of IAPP was probed using an exogenous reporter, Thioflavin T (ThT), which quantifies the amount of fibers in solution without perturbing the aggregation kinetics of IAPP (see Wolfe, L. S.; Calabrese, M. F.; Nath, A.; Blaho, D. V.; Miranker, A. D.; Xiong, Y. Proc. Natl. Acad. Sci. U.S.A. 2010, 107, 16863-16868; Levine, H. Protein Sci. 1993, 2, 404-410). […] The kinetics of IAPP fibrillation was quantified using the reaction midpoint, t50, which is the time required to reach 50% fluorescence in the fibrillation reaction (FIG. 8).
Kinetic assays were conducted on a FlexStation 3 Multi-Mode Microplate reader from Molecular Devices (Sunnyvale, Calif.). Experiments were conducted in triplicate in a 96-well plate with a final volume of 200 μL per well. Every measurement was an average of 50 readings. The aggregation of IAPP was initiated by its addition from a stock solution (1 mM in DMSO) to phosphate buffer. The stoichiometry ratio for ThT to IAPP was 0.5:1. Peptide aggregation was monitored by ThT fluorescence (λex=445 nm and λem=485 nm). The blank sample contained all the components of the peptide samples except peptide. The sample data were processed by subtracting the blank and renormalizing the fluorescence intensity by setting the maximum value to 1.
Kinetic assays in the presence of the compounds of the invention were conducted under the same conditions. Small molecules were added from a stock solution (1 mM or 10 mM in DMSO) to keep the final concentration of DMSO less than 1.0% (v/v). Small molecules were added to the wells with ThT and buffer and mixed gently with a pipette before adding IAPP. To keep the conditions identical, an equal amount of DMSO was added to the wells with IAPP only reactions. For the aggregation kinetics of Aβ42, the peptide was dissolved in 1N NaOH (0.5-1 mM) and vortexed for 2 min. to ensure the complete solubility. The aggregation of 3 μM Aβ42 was initiated by addition of peptide from a stock solution (in 1 N NaOH, 0.5-1 mM) to phosphate buffer.
Kinetic profiles were processed using Origin (version 9.1). Kinetic curves were fit using the built-in sigmoidal fit. Each run was fit independently to extract the t50 (time required to reach 50% of the maximum fluorescence intensity). Error bars represent standard deviations from the mean of at least three independent experiments.
The membrane model system selected for the amyloid assays is a mixture of DOPG (dioleoylphosphatidylglycerol) and DOPC (dioleoylphosphatidylcholine) at 3:7 molar ratio, which mimics physiological conditions (Ono, K.; Condron, M. M.; Teplow, D. B. Proc. Natl. Acad. Sci. U.S.A. 2009, 106, 14745-14750). The lipid catalyzed aggregation of IAPP was initiated by adding freshly prepared 15 μM IAPP (1 mM stock solution in DMSO) to the phosphate buffer (50 mM NaPi, 150 mM KCl, pH 7.4) containing 15 μM ThT and 750 μM of unilamellar liposomes (LUVs, DOPG:DOPC, 3:7, d=100 nm).

[2] = target: T1, islet amyloid polypeptide (IAPP); assay: PICUP SDS-PAGE silver staining of IAPP oligomerization; assay type: biochemical; settings: 15 μM IAPP, equimolar ratio, up to 300 min
Procedure: The effect of ADH-101 on the oligomerization of IAPP was evaluated using performance photo-induced cross-linking of unmodified proteins (PICUP) SDS-PAGE-silver staining as described in Ono, K.; Condron, M. M.; Teplow, D. B. Proc. Natl. Acad. Sci. U.S.A. 2009, 106, 14745-14750 (FIG. 2E). IAPP was incubated in a buffer in the presence and absence of ADH-101 at an equimolar ratio, and the solutions were then treated with the cross-linking agent at various time intervals (FIG. 2E). IAPP forms oligomers of varying sizes as a function of time (FIG. 2E, Lane i-iv). […] Without wishing to be bound by any theory, it is postulated that ADH-101 forms a complex with monomeric IAPP and abolishes the oligomerization of IAPP.

antagonist of oligomerization, fibrillation, and/or aggregation of IAPP (in words) [1]: effective antagonist
inhibition of IAPP aggregation ([1]; de novo (no lipid membrane), fivefold excess): completely abolishes
relative t50 of IAPP fibrillation versus control reaction ([1]; de novo / lipid free): 4.4 fold
change in the intensity of ThT ([1]; identical conditions without IAPP): no significant change
relative t50 of IAPP fibrillation versus control reaction ([1]; lipid catalyzed (750 μM LUVs, DOPG:DOPC 3:7)): 2.7 fold
fold better inhibitor of IAPP fibrillation than Acid Fuchsin ([1]; lipid catalyzed conditions): 3.5 fold
fold better inhibitor of IAPP fibrillation than Curcumin ([1]; lipid catalyzed conditions): 2.2 fold
fold better inhibitor of IAPP fibrillation than EGCG ([1]; lipid catalyzed conditions): 3.3 fold
inhibition of IAPP fibrillation ([1]; lipid catalyzed, stoichiometric ratio 10:1 (ADH-101:IAPP)): completely inhibits
SMILES: CCOC(=O)c1cc(NC(=O)c2cc(NC(=O)c3cc([N+](=O)[O-])cn3CC(C)C)cn2CC(C)C)cn1CCC(=O)O [ADH-101]
IAPP oligomerization (PICUP) [2]: completely inhibits the formation of large aggregates
